Measured values from patent US7820663B2, “Substituted enaminones, their derivatives and uses thereof” (The Regents of the University of California, priority 2005, dated 2010).

Row | SMILES | melting point [°C]
1 | CCOc1ccc(N/C=C(\C(=O)Nc2ccccc2)c2cc(C)no2)cc1 [Example 3, α-[[(4-Ethoxyphenyl)amino]methylene]-3-methyl-N-phenyl-5-isoxazoleacetamide] | 114 to 115
2 | Cc1cc(/C(=C/Nc2ccc(Cl)cc2)C(=O)Nc2ccc(Cl)cc2)no1 [Example 8, N-(4-Chlorophenyl)-α-[[4-(chlorophenyl)amino]methylene]-5-methyl-3-isoxazoleacetamide] | 179 to 180
